Values of other authors in paper PMC9762682, “Tocotrienols: Exciting Biological and Pharmacological Properties of Tocotrienols and Naturally Occurring Compounds, Part II” (Annals of clinical case reports, 2022).
Counter-ions that a name gives are not always drawn. Values belong to the compound of their own block, whether it stands above or below them.

How the values were obtained:
[1] = tested on: Hela cells; parameters: method as in PMID 29606130; value at effective dose: unit not given here; settings: for effective dose / percentage of control at effective dose / value at effective dose: 48 h;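 on IC50: anti-proliferation of cancer cells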
[2] = tested on: Lung cancer cells; parameters: method as in PMID 29606130; value at effective dose: unit not given here
[3] = tested on: Breast cancer cells; parameters: method as in PMID 29606130; value at effective dose: unit not given here;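 on IC50: anti-proliferation of cancer cells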
[4] = tested on: B-Lymphocyte cells; parameters: method as in PMID 29606130; value at effective dose: unit not given here;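 on IC50: anti-proliferation of cancer cells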
[5] = tested on: Melanoma cells; parameters: method as in PMID 29606130
[6] = tested on: T-cells (Jurkat); parameters: method as in PMID 29606130; value at effective dose: unit not given here
[7] = tested on: Pancreas cancer cells; parameters: method as in PMID 29606130; value at effective dose: unit not given here; settings: for effective dose / percentage of control at effective dose / value at effective dose: 48 h
[8] = tested on: Prostate cancer cells; parameters: method as in PMID 29606130; value at effective dose: scale not given here; settings: for effective dose / percentage of control at effective dose / value at effective dose: 48 h;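 on IC50: anti-proliferation of cancer cells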
[9] = tested on: Liver cancer cells; parameters: method as in PMID 29606130; value at effective dose: unit not given here; settings: for effective dose / percentage of control at effective dose / value at effective dose: 48 h
[10] = tested on: people with T2DM
[11] = serum, two capsules/d for 24-weeks

Compound: N=C(N)NC(=O)c1nc(Cl)c(N)nc1N [Amiloride-HCL]
IC50 [1]: 10 µM | percentage of control at IC50 dose [1]: 51% | effective dose [1]: 80 µM | percentage of control at effective dose [1]: 36% | value at effective dose [1]: 19.7 ± 1.5 | effective dose [2]: 40 µM | percentage of control at effective dose [2]: 86% | value at effective dose [2]: 23.3 ± 2.5 | IC50 [3]: 40 µM | effective dose [3]: 20 µM | percentage of control at IC50 dose [3]: 52% | percentage of control at effective dose [3]: 61% | value at effective dose [3]: 14.0 ± 5.3 | IC50 [4]: 40 µM | effective dose [4]: 20 µM | percentage of control at IC50 dose [4]: 48% | percentage of control at effective dose [4]: 56% | value at effective dose [4]: 5.0 ± 1.0 | effective dose [5]: 40 µM | percentage of control at effective dose [5]: 90% | effective dose [6]: 20 µM | percentage of control at effective dose [6]: 38% | value at effective dose [6]: 132.7 ± 2.1 | effective dose [7]: 80 µM | percentage of control at effective dose [7]: 69% | value at effective dose [7]: 30.7 ± 1.2 | effective dose [8]: 80 µM | percentage of control at effective dose [8]: 70% | value at effective dose [8]: 27.0 ± 4.6 | percentage of control at IC50 dose [9]: 56% | effective dose [9]: 40 µM | percentage of control at effective dose [9]: 65% | value at effective dose [9]: 36.7 ± 2.5

IC50 [8]: 5 µM | percentage of control at IC50 dose [8]: 50%
Compound: CC1(C)S[C@@H]2[C@H](NC(=O)[C@H](N)c3ccccc3)C(=O)N2[C@H]1C(=O)O [Ampicillin]
effective dose [1]: 80 µM | percentage of control at effective dose [1]: 88% | value at effective dose [1]: 47.7 ± 5.5 | effective dose [2]: 80 µM | percentage of control at effective dose [2]: 85% | value at effective dose [2]: 21.3 ± 1.5 | effective dose [3]: 40 µM | percentage of control at effective dose [3]: 74% | value at effective dose [3]: 16.7 ± 6.1 | effective dose [4]: 10 µM | percentage of control at effective dose [4]: 66% | value at effective dose [4]: 44.7 ± 5.1 | effective dose [5]: 20 µM | percentage of control at effective dose [5]: 70% | effective dose [6]: 20 µM | percentage of control at effective dose [6]: 94% | value at effective dose [6]: 450.3 ± 15.6 | effective dose [7]: 80 µM | percentage of control at effective dose [7]: 74% | value at effective dose [7]: 35.3 ± 5.0 | effective dose [8]: 20 µM | percentage of control at effective dose [8]: 41% | value at effective dose [8]: 15.0 ± 1.0 | effective dose [9]: 40 µM | percentage of control at effective dose [9]: 88% | value at effective dose [9]: 70.3 ± 4.2

IC50 [2]: 10 µM | percentage of control at IC50 dose [2]: 49%
Compound: O=C1O[C@H]([C@@H](O)CO)C(O)=C1O [Ascorbic Acid]
effective dose [1]: 80 µM | percentage of control at effective dose [1]: 64% | value at effective dose [1]: 21.0 ± 0.1 | effective dose [2]: 20 µM | percentage of control at effective dose [2]: 46% | value at effective dose [2]: 15.0 ± 4.4 | effective dose [3]: 40 µM | percentage of control at effective dose [3]: 73% | value at effective dose [3]: 15.0 ± 1.7 | effective dose [4]: 20 µM | percentage of control at effective dose [4]: 62% | value at effective dose [4]: 17.3 ± 2.5 | effective dose [5]: 80 µM | percentage of control at effective dose [5]: 81% | effective dose [6]: 40 µM | percentage of control at effective dose [6]: 89% | value at effective dose [6]: 451.3 ± 32.4 | effective dose [7]: 80 µM | percentage of control at effective dose [7]: 71% | value at effective dose [7]: 42.3 ± 2.5 | effective dose [8]: 80 µM | percentage of control at effective dose [8]: 81% | value at effective dose [8]: 29.3 ± 2.1 | effective dose [9]: 80 µM | percentage of control at effective dose [9]: 90% | value at effective dose [9]: 74.3 ± 2.5

IC50 [1]: 20 µM | percentage of control at IC50 dose [1]: 54% | IC50 [2]: 2.5 µM | percentage of control at IC50 dose [2]: 47% | IC50 [4]: 5 µM | percentage of control at IC50 dose [4]: 45% | IC50 [8]: 2.5 µM | percentage of control at IC50 dose [8]: 45%
Compound: C[C@@H]1C[C@H]2[C@@H]3CCC4=CC(=O)C=C[C@]4(C)[C@@]3(F)[C@@H](O)C[C@]2(C)[C@@]1(O)C(=O)CO [Dexamethasone]
effective dose [1]: 80 µM | percentage of control at effective dose [1]: 53% | value at effective dose [1]: 18.0 ± 4.0 | effective dose [2]: 20 µM | percentage of control at effective dose [2]: 76% | value at effective dose [2]: 16.7 ± 2.1 | effective dose [3]: 80 µM | percentage of control at effective dose [3]: 85% | value at effective dose [3]: 15.7 ± 3.1 | effective dose [4]: 10 µM | percentage of control at effective dose [4]: 41% | value at effective dose [4]: 61.0 ± 3.6 | effective dose [5]: 40 µM | percentage of control at effective dose [5]: 74% | effective dose [6]: 40 µM | percentage of control at effective dose [6]: 71% | value at effective dose [6]: 282.0 ± 21.7 | effective dose [7]: 20 µM | percentage of control at effective dose [7]: 73% | value at effective dose [7]: 34.7 ± 4.0 | effective dose [8]: 20 µM | percentage of control at effective dose [8]: 32% | value at effective dose [8]: 16.7 ± 1.5 | effective dose [9]: 80 µM | percentage of control at effective dose [9]: 93% | value at effective dose [9]: 67.3 ± 4.0

Compound: C=C[C@H]1C[N@@]2CC[C@H]1C[C@H]2[C@H](O)c1ccnc2ccc(OC)cc12 [Quinine Sulphate]
IC50 [1]: 10 µM | percentage of control at IC50 dose [1]: 24% | effective dose [1]: 20 µM | percentage of control at effective dose [1]: 19% | effective dose [2]: 40 µM | percentage of control at effective dose [2]: 66% | effective dose [3]: 80 µM | percentage of control at effective dose [3]: 60% | value at effective dose [3]: 12.3 ± 2.3 | effective dose [4]: 80 µM | percentage of control at effective dose [4]: 19% | IC50 [5]: 80 µM | effective dose [5]: 20 µM | percentage of control at IC50 dose [5]: 50% | percentage of control at effective dose [5]: 56% | IC50 [6]: 80 µM | effective dose [6]: 40 µM | percentage of control at IC50 dose [6]: 50% | percentage of control at effective dose [6]: 77% | value at effective dose [6]: 267.7 ± 29.7 | effective dose [7]: 40 µM | percentage of control at effective dose [7]: 78% | value at effective dose [7]: 35.0 ± 3.0 | IC50 [8]: 20 µM | percentage of control at IC50 dose [8]: 36% | effective dose [8]: 20 µM | percentage of control at effective dose [8]: 36% | value at effective dose [8]: 15.7 ± 2.1 | IC50 [9]: 80 µM | percentage of control at IC50 dose [9]: 58% | effective dose [9]: 80 µM | percentage of control at effective dose [9]: 58% | value at effective dose [9]: 47.7 ± 2.1

Compound: C=C(NC(=O)C(=C)NC(=O)c1csc(C2=N[C@@H]3c4csc(n4)[C@H]4NC(=O)c5csc(n5)[C@H]([C@](C)(O)[C@@H](C)O)NC(=O)[C@H]5CSC(=N5)/C(=C/C)NC(=O)[C@H]([C@@H](C)O)NC(=O)c5csc(n5)[C@]3(CC2)NC(=O)[C@H](C)NC(=O)C(=C)NC(=O)[C@H](C)NC(=O)[C@H]([C@@H](C)CC)N[C@@H]2C=Cc3c([C@H](C)O)cc(nc3[C@H]2O)C(=O)O[C@@H]4C)n1)C(N)=O [Thiostrepton]
IC50 [1]: 10 µM | percentage of control at IC50 dose [1]: 24% | effective dose [1]: 40 µM | percentage of control at effective dose [1]: 16% | value at effective dose [1]: 8.7 ± 1.5 | IC50 [2]: 5 µM | effective dose [2]: 5 µM | percentage of control at IC50 dose [2]: 48% | percentage of control at effective dose [2]: 28% | value at effective dose [2]: 7.0 ± 2.0 | IC50 [3]: 20 µM | effective dose [3]: 10 µM | percentage of control at IC50 dose [3]: 16% | percentage of control at effective dose [3]: 29% | value at effective dose [3]: 6.7 ± 0.6 | effective dose [4]: 2.5 µM | percentage of control at IC50 dose [4]: 23% | percentage of control at effective dose [4]: 23% | value at effective dose [4]: 15.7 ± 4.0 | effective dose [5]: 5 µM | percentage of control at IC50 dose [5]: 34% | percentage of control at effective dose [5]: 13% | effective dose [6]: 2.5 µM | percentage of control at IC50 dose [6]: 5% | percentage of control at effective dose [6]: 5% | value at effective dose [6]: 21.3 ± 2.1 | IC50 [7]: 5 µM | percentage of control at IC50 dose [7]: 29% | effective dose [7]: 10 µM | percentage of control at effective dose [7]: 16% | value at effective dose [7]: 7.7 ± 0.6 | IC50 [8]: 2.5 µM | percentage of control at IC50 dose [8]: 53% | effective dose [8]: 5 µM | percentage of control at effective dose [8]: 19% | value at effective dose [8]: 7.0 ± 1.7 | IC50 [9]: 2.5 µM | percentage of control at IC50 dose [9]: 53% | effective dose [9]: 10 µM | percentage of control at effective dose [9]: 8% | value at effective dose [9]: 6.7 ± 2.2

Compound: C=C1CC[C@H](O)C/C1=C/C=C1\CCC[C@]2(C)[C@@H]([C@H](C)CCCC(C)C)CC[C@@H]12 [Vitamin D3]
Fasting Glucose, Post-dose, percentage of control (pre-dose) in parentheses [10, 11]: 95% | MDA, Post-dose [10, 11]: 3.48 µmol/L | MDA, Post-dose, percentage of control (pre-dose) in parentheses [10, 11]: 97% | hs-CRP, Post-dose [10, 11]: 3.09 mg/L | hs-CRP, Post-dose, percentage of control (pre-dose) in parentheses [10, 11]: 92% | Fasting Glucose, Post-dose ([10]; serum, two capsules/d for 24-weeks (δ-tocotrienol 250 mg, vitamin D3 5000 IU, resveratrol 250 mg per capsule)): 7.16 mmol/L | Fasting HbA1c, Post-dose ([10]; two capsules/d for 24-weeks): 8.19% | Fasting HbA1c, Post-dose, percentage of control (pre-dose) in parentheses ([10]; two capsules/d for 24-weeks): 93% | HOMA-IR, Post-dose ([10]; two capsules/d for 24-weeks): 4.74 | HOMA-IR, Post-dose, percentage of control (pre-dose) in parentheses ([10]; two capsules/d for 24-weeks): 89%
